The text below walks through data of patent US7307082B2, “Heterocyclic derivatives as CRF antagonists” (Roche Palo Alto LLC, priority 2003, dated 2007).

The target of one series is T1, CRF receptor (Homo sapiens, UniProt P34998).
T1 construct: Cell membranes are prepared according the method of Dieterich and DeSouza (1996); endogenous in cells; host or cells: IMR-32 human neuroblastoma cells (membrane preparation)
T1 sequence (P34998 24-415): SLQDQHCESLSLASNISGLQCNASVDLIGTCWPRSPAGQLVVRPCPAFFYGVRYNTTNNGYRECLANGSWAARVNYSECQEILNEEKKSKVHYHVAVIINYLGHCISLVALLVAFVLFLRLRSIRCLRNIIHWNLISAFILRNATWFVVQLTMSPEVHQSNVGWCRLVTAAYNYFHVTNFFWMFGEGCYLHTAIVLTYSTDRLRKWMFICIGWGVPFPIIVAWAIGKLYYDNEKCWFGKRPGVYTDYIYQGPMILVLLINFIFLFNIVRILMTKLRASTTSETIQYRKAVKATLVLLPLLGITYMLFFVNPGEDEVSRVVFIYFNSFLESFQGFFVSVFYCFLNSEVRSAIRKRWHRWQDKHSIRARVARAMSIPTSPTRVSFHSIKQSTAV
The experiment in a line: CRF Receptor Binding Assay (competition with [125I]Tyr0-ovine CRF, IMR-32 cell membranes). To be noted: Human IMR-32 neuroblastoma cell membranes. Here is the method:
CRF Receptor Binding Assay
Human IMR-32 neuroblastoma cells are grown to 80% confluence in MEM medium containing 10% heat-inactivated FBS, 1 mM sodium pyruvate, and 0.1 mM nonessential amino acids. Cell membranes are prepared according the method of Dieterich and DeSouza (1996). The cells (˜5E+9) are resuspended in 10 volumes of wash buffer (5 mM Tris HCl, 10 mM MgCl2, 2 mM EGTA, pH 7.4 at RT), homogenized with a Polytron, and then centrifuged at 45,000 G for 20 min at 4° C. The membrane pellets are washed twice with wash buffer (45,000 G for 20 min at 4° C.) and then resuspended (50 mM Tris HCl, 10 mM MgCl2, 2 mM EGTA, pH 7.4 at RT). Protein concentration is determined using Pierce reagents and BSA as standard. Aliquots of 1-1.5 mL are stored at −80° C. until binding assay.
The competition binding assay is performed in a final volume of 250 μl, which contains assay buffer (50 mM Tris-HCl, 10 mM MgCl2, 2 mM EGTA, 0.2% BSA, 0.1 mM bacitracin and 100 kIU/mL aprotinin pH 7.2 at R.T.), 0.05 nM [^125I]Tyr^0-ovine CRF (Du Pont New England Nuclear), 50 μg of membrane protein, and test compound at various concentrations. Non-specific binding is determined with 1 uM hCRF. […] Unbound radioactivity is removed by four rapid washes (0.8 ml/well) with wash buffer. The radioactivity is quantified using a Packard TopCount. […]

By melting point is commonly meant the temperature of the solid-liquid transition. As for `CCC(CC)N1C(=O)CCc2c(C)nc(Nc3ccc(C(C)C)cc3Br)nc21` [Cpd 113, 2-(2-Bromo-4-isopropyl-phenyl-amino)-8-(1-ethyl-propyl)-4-meth-yl-5,8-dihydro-6H-pyrido[2,3-d]py-rimidin-7-one], the melting point was 124 to 126 °C.
By IC50 is commonly meant the concentration at which inhibition is half-maximal. Read a high IC50 as weaker potency in that assay. In general, Ki refers to a dissociation constant, usually derived from enzyme kinetics or from competition with a known ligand. The compound `CCC(CC)N1CCc2c(C)nc(N(CC)c3c(C)cc(C)cc3C)nc21` [Cpd 2, Ethyl-[7-(1-ethyl-propyl)-4-meth-yl-6,7-dihydro-5H-pyr-rolo[2,3-d]pyrimidin-2-yl]-(2,4,6-tri-methyl-phenyl)-amine;compound with trifluoro-aceticacid] had a half-maximal inhibitory concentration (IC50) at CRF receptor (0.05 nM [125I]Tyr0-ovine CRF, 2 hr at 25° C.) of 2090 nM. On CRF receptor (pKi values are derived from pIC50 values), this compound showed a Ki of 195 nM.
Turning to `CCCC(CCC)N1CCCc2c(C)nc(Nc3ccc(C(C)C)cc3Br)nc21.Cl`, the melting point was in the range of 182 to 184 °C.
On the same count and under the same terms, the figure for `CCCC(CCC)N1C(=O)CCc2c(C)nc(N(CC)c3ccc(C(C)C)cc3Br)nc21` [Cpd 117, 2-[(2-Bromo-4-isopropyl-phenyl)-eth-yl-amino]-4-methyl-8-(1-propyl-bu-tyl)-5,8-dihydro-6H-pyrido[2,3-d]py-rimidin-7-one] is 92 to 94 °C; for `CCCC(CCC)N1CCCc2c(C)nc(N(CC)c3ccc(C(C)C)cc3Br)nc21.Cl` it is 201 to 205 °C.
